In US10517889B2, “Modulators of SMAD7 expression” (Ionis Pharmaceuticals, Inc., priority 2017, dated 2019):
Values joined by “and” are separate entries in the source; they are usually repeats but may differ in a detail not shown here. Equal values may be shown once. Strand notation (5' to 3'): a small letter for the sugar, then the base; units joined by * are phosphorothioate-linked, units joined directly phosphodiester-linked; [ ] holds rarer units or linkages, { } end groups; capitals alone tell only the bases. k = constrained ethyl (cEt); [5mC] = 5-methylcytosine; d = 2'-deoxy (DNA)

Assays:
[1] = tested on: human SMAD7 mRNA; test: Antisense inhibition of human SMAD7 mRNA expression in Hep3B cells by 3-10-3 cEt gapmers, 10,000 nM, electroporation (Example 2); assay type: cell-based; settings: approximately 24 hours
In short: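 Hep3B cells (20,000 per well) were electroporated with 10,000 nM 16-mer 3-10-3 cEt gapmer (phosphorothioate, 5-methylcytosine). After about 24 h, SMAD7 mRNA was quantified by qRT-PCR with primer probe set RTS5062, normalised to RIBOGREEN total RNA, and expressed as percent inhibition versus untreated cells.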

[2] = tested on: human SMAD7 mRNA; test: Dose-dependent inhibition of human SMAD7 mRNA expression in Hep3B cells (Example 3, Study 1 and 2); assay type: cell-based; settings: electroporation; for % inhibition of SMAD7 mRNA expression: approximately 16 hours; for IC50: Study 2 (740-20000 nM)
In short: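 Hep3B cells, 20,000 per well, electroporated with antisense oligonucleotide at 0.31, 1.25, 5.00 or 20.00 μM (first series) or 0.74, 2.22, 6.67 or 20.00 μM (second series). After ~16 h, SMAD7 mRNA measured by RT-qPCR (RTS5062), normalised to RIBOGREEN total RNA. Percent inhibition vs untreated cells; IC50 derived.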

[3] = Hep3B cells, electroporation with 10,000 nM antisense oligonucleotide, SMAD7 mRNA by RT-PCR (RTS5062), relative to untreated control cells
[4] = SMAD7 mRNA, Hep3B cells, 10,000 nM antisense oligonucleotide, electroporation, primer probe set RTS5062, relative to untreated control cells
[5] = 740 nM, Study 2, relative to untreated control cells
[6] = SMAD7 mRNA, Hep3B cells, electroporation with 10,000 nM antisense oligonucleotide, primer probe set RTS5062, relative to untreated control cells

Substance	% Inhibition [1, 3]	% inhibition of SMAD7 mRNA expression ([1]; Hep3B cells, electroporation with 10,000 nM antisense oligonucleotide, primer probe set RTS5062, relative to untreated control cells)	% Inhibition [1, 4]	% inhibition of SMAD7 mRNA expression ([2]; 20000.0 nM, Study 2)	IC50 [2]	% inhibition of SMAD7 mRNA expression [2, 5]	% inhibition of SMAD7 mRNA expression ([2]; 2220 nM, Study 2)	% inhibition of SMAD7 mRNA expression ([2]; 6670.0 nM, Study 2)	% Inhibition [1, 6]	% inhibition of SMAD7 mRNA expression ([1]; Hep3B cells, electroporation, 10,000 nM, 3-10-3 cEt gapmers targeting SEQ ID NO: 3 and 4)
800109 (antisense kA*k[5mC]*kA*dG*d[5mC]*d[5mC]*dA*d[5mC]*dA*dA*dG*dT*d[5mC]*kA*k[5mC]*kA) [compound 800109]	86%	75%	88%	71% and 67% and 93% and 97%	1000 nM	–	–	–	–	–
829734 (antisense kT*k[5mC]*k[5mC]*dG*d[5mC]*dA*d[5mC]*dA*d[5mC]*d[5mC]*dA*dT*dG*kA*kA*kG) [compound 829734]	–	–	71%	68%	4000 nM	20%	40%	69%	–	–
829762 (antisense k[5mC]*k[5mC]*kT*dT*d[5mC]*dA*dG*dA*dT*d[5mC]*d[5mC]*dG*d[5mC]*k[5mC]*kT*k[5mC]) [compound 829762]	–	–	67%	78%	> 20000 nM	27%	41%	59%	–	–
829767 (antisense kG*kG*kA*dG*dG*d[5mC]*dA*d[5mC]*dG*d[5mC]*dG*dG*dT*kG*k[5mC]*kG) [compound 829767]	–	–	66%	49%	3000 nM	5%	6%	36%	–	–
829776 (antisense kG*k[5mC]*kG*dA*dG*dT*dA*dG*dG*dA*d[5mC]*dG*dA*kG*kG*kG) [compound 829776]	–	–	64%	81%	5000 nM	26%	40%	66%	–	–
829864 (antisense kG*kG*kG*dT*dA*dA*d[5mC]*dT*dG*d[5mC]*dT*dG*d[5mC]*kG*kG*kT) [compound 829864]	–	–	–	76%	1000 nM	0%	33%	67%	68%	–
829942 (kG*k[5mC]*kA*dT*d[5mC]*dT*dG*dG*dA*d[5mC]*dA*dG*dT*k[5mC]*kA*kG; antisense) [compound 829942]	–	–	–	94%	< 700 nM	44%	70%	84%	–	92%
829956 (k[5mC]*k[5mC]*kT*dT*dG*dT*d[5mC]*dA*d[5mC]*d[5mC]*d[5mC]*dG*dT*k[5mC]*kT*kG; antisense) [compound 829956]	–	–	–	95%	1000 nM	65%	82%	89%	66%	–
829980 (kT*kT*kG*dA*dT*dA*dT*dT*dT*dA*dG*d[5mC]*dT*kG*kT*k[5mC]; antisense) [compound 829980]	–	–	–	92%	3000 nM	52%	63%	79%	56%	–
829995 (kT*kG*kG*dA*dG*dG*d[5mC]*dA*dG*dG*dG*d[5mC]*d[5mC]*kG*k[5mC]*kG; antisense) [compound 829995]	–	–	–	84%	8000 nM	36%	74%	76%	78%	–
830010 (antisense kG*kT*k[5mC]*dT*d[5mC]*dA*dA*dA*dT*dG*dG*dG*d[5mC]*kT*kT*k[5mC]) [compound 830010]	–	–	–	72%	1000 nM	0%	12%	52%	68%	–
830028 (antisense k[5mC]*kA*kG*dT*d[5mC]*dA*dA*dG*dT*dT*dA*d[5mC]*dA*kG*kT*k[5mC]) [compound 830028]	75%	–	–	93%	3000 nM	54%	70%	85%	–	–
830044 (k[5mC]*kG*kA*dT*dT*dG*dG*d[5mC]*dA*dG*dG*dT*dT*kA*kA*kT; antisense) [compound 830044]	60%	–	–	93%	10000 nM	47%	61%	80%	–	–
830051 (kT*kA*kG*dT*dT*dT*d[5mC]*d[5mC]*dG*dA*dT*dT*dG*kG*k[5mC]*kA; antisense) [compound 830051]	84%	–	–	67%	2000 nM	0%	18%	42%	–	–
830053 (kG*kG*kG*dT*dG*dA*dG*dT*dA*dA*d[5mC]*d[5mC]*dA*kG*k[5mC]*kT; antisense) [compound 830053]	68%	–	–	87%	2000 nM	29%	56%	79%	–	–
830067 (kG*kA*kA*dA*dT*dG*dG*dT*dG*d[5mC]*dT*d[5mC]*dT*kG*k[5mC]*k[5mC]; antisense) [compound 830067]	63%	–	–	88%	10000 nM	23%	59%	80%	–	–
